Test results taken from patent US4695648A, “Novel arylacetic acid derivatives” (Pharmacia AB, priority 1984, dated 1987).

What follows are compounds tested against T1, 15-hydroxy-prostaglandin dehydrogenase (PGDH) (Homo sapiens, UniProt P15428) (assay: Inhibition of 15-Hydroxy Prostaglandin Dehydrogenase (in vitro, cell-free preparations of human placenta, radioactive PGF2 degradation)). Conditions: 50% inhibition of degradation of radioactive PGF2 vs controls without inhibitor.
T1 construct: cell-free preparations of human placenta (containing PGDH); from tissue; host or cells: human placenta, cell-free preparation
T1 sequence (P15428 1-266): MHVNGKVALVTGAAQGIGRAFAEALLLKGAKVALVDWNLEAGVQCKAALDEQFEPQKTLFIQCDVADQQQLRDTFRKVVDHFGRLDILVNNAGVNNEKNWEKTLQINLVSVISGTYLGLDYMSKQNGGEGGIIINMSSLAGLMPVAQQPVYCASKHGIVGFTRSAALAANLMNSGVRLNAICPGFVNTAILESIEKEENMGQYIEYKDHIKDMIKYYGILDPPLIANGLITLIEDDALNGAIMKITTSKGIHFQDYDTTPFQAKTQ
Assay type: biochemical
Method: Radioactive prostaglandin F2 (PGF2 ) is incubated with cell-free preparations of human placenta (containing PGDH) as desribed by Hoult and Moore, Brithish Journal of Pharmacology Vol. 61 (1977), p. 615. After a suitable incubation period the prostaglandins are extracted and separated chromatographically. The amount of unchanged PGF2 is then compared with the amount of metabolites. The inhibitory effect is evaluated by measurement of the effect in the presence of different amounts of added inhibitor and determination of the concentration (IC50 ) at which 50% inhibition of degradation has been obtained as compared to controls run without inhibitor additions. Very good inhibitors are considered to be those that inhibit PGDH by 50% at a concentration of 10 μM or less. Good inhibitors are considered to be those that inhibit at a concentration of between 10 and 100 μM. Also where a compound has to be classified as less good this will often be compensated in actual practice by other valuable properties, such as for instance a low toxicity or particularly suitable pharmacokinetic properties.
The Table below sets forth IC50 values for a number of compounds according to the invention. For comparison the Table also gives the IC50 value of 5-phenylazo-2-hydroxybenzeneacetic acid which is a known effective PGDH inhibitor described in EP,-A-No. 21229.

Going from `O=C(O)Cc1cc(C(=O)C=Cc2ccccc2)ccc1O` [Example 16, 5-(3-Phenyl-1-oxo-2-propenyl)-2-hydroxy-benzeneacetic acid] to `O=C(O)Cc1cc(C=Cc2ccccc2)ccc1O` [Example 4, 2-Hydroxy-5-(2-phenyl-1-ethenyl)-benzeneacetic acid], the IC50 rises from 12000 nM to 20000 nM (1.7-fold). The first is the more potent here.

Compared with `COC(=O)Cc1cc(C(=O)c2ccc(F)cc2)ccc1O` [Example 20, Methyl-5-(4-fluorobenzoyl)-2-hydroxy-benzeneacetate], `O=C(O)Cc1cc(C(=O)c2ccc(F)cc2)ccc1O` [Example 21, 5-(4-Fluorobenzoyl)-2-hydroxy-benzeneacetic acid] is 8.4-fold lower in IC50: 4900 nM for the first, 580 nM for the second. The second is the more potent here.

`N#Cc1ccc(C(=O)c2ccc(O)c(CC(=O)O)c2)cc1` [Example 6, 5-(4-Cyanobenzoyl)-2-hydroxy-benzeneacetic acid] and `O=C(O)Cc1cc(C(=O)c2ccc(Cl)cc2)ccc1O` [Example 5, 2-Hydroxy-5-(4-chlorobenzoyl)-benzeneacetic acid] are within 1.5-fold of each other in IC50: 740 nM for the first, 600 nM for the second.

Going from `O=C(O)Cc1cc(C(=O)c2ccc(Cl)cc2Cl)ccc1O` [Example 11, 5-(2,4-Dichlorobenzoyl)-2-hydroxy-benzeneacetic acid] to `O=C(O)Cc1cc(C(=O)c2ccccc2F)ccc1O` [Example 10, 5-(2-Fluorobenzoyl)-2-hydroxy-benzeneacetic acid], the IC50 rises from 210 nM to 740 nM (3.5-fold). The first is the more potent here.

Going from `O=C(O)Cc1cc(C(=O)Cc2ccccc2)ccc1O` [Example 14, 5-(2-Phenylacetyl)-2-hydroxy-benzeneacetic acid] to `O=C(O)Cc1cc(C(=O)c2ccccc2)ccc1O` [Example 1, 5-Benzoyl-2-hydroxy-benzeneacetic acid], the IC50 falls from 56000 nM to 1400 nM (40-fold).

First: O=C(O)Cc1cc(C(=O)C=Cc2ccc(C(=O)O)cc2)ccc1O [Example 17, 2-Hydroxy-5-(3-(4-carboxyphenyl)-1-oxo-2-propenyl)benzeneacetic acid]
Second: O=C(O)Cc1cc(C=Cc2ccc(C(=O)O)cc2)ccc1O [Example 33, 2-Hydroxy-5-(2-(4-carboxyphenyl)-1-ethenyl)-benzeneacetic acid]
The IC50 of the first is 3.5-fold higher: 1400 nM for the first, 400 nM for the second.

`COc1ccc(C=CC(=O)c2ccc(O)c(CC(=O)O)c2)cc1` [Example 30, 5-(3-(4-Methoxyphenyl)-1-oxo-2-propenyl)-2-hydroxybenzeneacetic acid] and `CC(C)c1ccc(C=CC(=O)c2ccc(O)c(CC(=O)O)c2)cc1` [Example 29, 5-(3-(4-(1-Methyl-ethyl)-phenyl)-1-oxo-2-propenyl)-2-hydroxy-benzeneacetic acid] are within 1.5-fold of each other in IC50: 1900 nM for the first, 1300 nM for the second.

Compared with `Cc1cc(C)cc(C(=O)c2ccc(O)c(CC(=O)O)c2)c1` [Example 3, 5-(3,5-Dimethyl-benzoyl)-2-hydroxy-benzeneacetic acid], `O=C(O)Cc1cc(C(=O)c2cccc(F)c2)ccc1O` [Example 12, 5-(3-Fluorobenzoyl)-2-hydroxy-benzeneacetic acid] is 17-fold lower in IC50: 22000 nM for the first, 1300 nM for the second. The second is the more potent here.

`O=C(O)Cc1cc(C(=O)Cc2ccc(C(=O)O)cc2)ccc1O` [Example 15, 2-Hydroxy-5-(2-(4-carboxyphenyl)-acetyl)-benzeneacetic acid] and `O=C(O)Cc1cc(C(=O)c2ccc(C(=O)O)cc2)ccc1O` [Example 7, 2-Hydroxy-5-(4-carboxybenzoyl)-benzeneacetic acid] are within 1.5-fold of each other in IC50: 1700 nM for the first, 1300 nM for the second.

Compared with `O=C(O)Cc1cc(C(=O)c2ccccc2)cc(Br)c1O` [Example 9, 5-Benzoyl-3-bromo-2-hydroxy-benzeneacetic acid], `O=C(O)Cc1cc(C(=O)c2cccc(C(=O)O)c2)ccc1O` [Example 18, 2-Hydroxy-5-(3-carboxybenzoyl)-benzeneacetic acid] is 7-fold lower in IC50: 42000 nM for the first, 6000 nM for the second.

Compared with `O=C(O)Cc1cc(N=Nc2ccccc2)ccc1O` [5-phenylazo-2-hydroxybenzeneacetic acid, reference compound], `O=C(O)Cc1cc(C(=O)c2c(F)cccc2F)ccc1O` [Example 25, 5-(2,6-Difluorobenzoyl)-2-hydroxy-benzeneacetic acid] is 32-fold lower in IC50: 12000 nM for the first, 380 nM for the second.

`CC(=O)c1ccc(C(=O)c2ccc(O)c(CC(=O)O)c2)cc1` [Example 32, 5-(4-Acetylbenzoyl)-2-hydroxy-benzeneacetic acid] showed an IC50 of 630 nM.
